A short description of the data set: Solubility of the lyophilised peptide. Format: physicochemical. The procedure: The crude peptide was desalted via gel filtration (Sephadex G10, 0.1% TFA in water) before purification by preparative C18 Vydac) high performance liquid chromatography (HPLC) using 0.1% trifluoroacetic acid and 0.1% trifluoroacetic acid/90% acetonitrile as gradient components. After lyophilisation, the peptide was a white amorphous powder, soluble to at least 10 mg/mL in both dimethylsulfoxide and water. Fast atom bombardment spectrometry gave a main peak at 2101 amu corresponding to the molecular ion of the peptide.

Like-named read-outs stand apart in the source and are kept apart here. Residues, ends and D or L forms follow the SMILES beside them. *: point of attachment. Myristoyl = CCCCCCCCCCCCCC(=O)* Some results are limits rather than exact numbers.

Broadly, the solubility is the dissolved amount per volume that the medium holds.

With `CCCCCCCCCCCCCC(=O)NCC(=O)N[C@@H](CO)C(=O)N[C@@H](CO)C(=O)N[C@@H](CCCCN)C(=O)N[C@@H](CO)C(=O)N1CCC[C@H]1C(=O)N[C@@H](CO)C(=O)N[C@@H](CCCCN)C(=O)N[C@@H](CCCCN)C(=O)N[C@@H](CC(=O)O)C(=O)N[C@@H](CC(=O)O)C(=O)N[C@@H](CCCCN)C(=O)N[C@@H](CCCCN)C(=O)N1CCC[C@H]1C(=O)NCC(=O)N[C@@H](CC(=O)O)C(=O)N[C@@H](CCCCNC(=O)[C@@H](N)CS)C(N)=O` [MSWP2278, Myristoyl-Gly-Ser-Ser-Lys-Ser-Pro-Ser-Lys-Lys-Asp-Asp-Lys-Lys-Pro-Gly-Asp-(E-amino-cysteinyl carboxamide)-Lys-NH2] (Myristoyl-GSSKSPSKKDDKKPGDK(Cys)-NH2), the solubility was ≥ 10000 µg/mL (in dimethylsulfoxide, read-out: solubility in dimethylsulfoxide) and ≥ 10000 µg/mL (in water, read-out: solubility in water).
